In patent US20260115312A1, “Conjugates for neuroretinal drug delivery” (Mireca Medicines GmbH, priority 2022, published 2026):

Tests used:
MCT2 = settings: cited from earlier work
[1] = In vitro drug release from liposomes; format: physicochemical; settings: liposomes according to the invention, in vitro set-up
Protocol: Complete release of CN04 from liposomes according to the invention was shown in an in vitro set-up within 48 h. The release rate for CN03 and CN04 can be lowered by precipitation within the liposome cavity with a specific salt using a remote loading technique similar to what has been done for liposomal doxorubicin formulations. CN03 has previously been remote loaded in similar liposomes using calcium acetate salts (Vighi, E., et al., PNAS, 2018, 115(13)).

[2] = test system: photoreceptors in rd1 retinal explant cultures; assay: TUNEL assay of dying photoreceptors in rd1 organotypic retinal explant cultures; format: cell-based, mouse; settings: free drug solution, 160 μM in 20 μL, final 3.14 μM, P7-P11
Protocol: FIG. 3A—Treatment of organotypic retinal explant cultures derived from the rd1 mouse model. Retinas were cultured at P5 and treated with either liposome-encapsulated or non-encapsulated (free) neuroprotective drugs (CN03 or CN04) from P7-P11. Assuming an equal distribution across the entire culturing medium, the final drug concentration was 3.14 μM for all treatments. The amount of dying photoreceptors in tissue sections from cultures under various treatment conditions was assessed using the TUNEL assay. DAPI was used to distinguish the outer nuclear layer (ONL). INL=inner nuclear layer. Scale bar 50 μm.
FIG. 3B—As for 3A, shown are percentages of dying (TUNEL+) cells in the ONL. Under non-treated (NT) conditions, the number of TUNEL+ cells are high in the rd1 model. Administration of free CN03 or CN04 had no significant effect on cell death. […]
(§1) Retinas derived from the rd1 or rd10 mouse models were cultured following the protocol described above and treated with the drugs CN03 or CN04. […] 11 z-stacks 1 μm apart were recorded, and from the projected images, the number of TUNEL-positive cells in the outer nuclear layer was manually counted. For the rd10 derived cultures, the average number of photoreceptor rows residing in the outer nuclear layer was counted from microscopy images, using the same imaging method. […]

MCT1 = settings: cited from earlier work
[3] = test system: photoreceptors in rd10 retinal explant cultures; assay: Remaining photoreceptor rows in rd10 organotypic retinal explant cultures; format: cell-based, mouse; settings: treated P11 until P17 or P24, DSPC-containing liposomes, same drug concentration
Protocol: FIG. 4A—Treatment of organotypic retinal explant cultures derived from the rd10 mice model. Retinas were cultured at P9 and treated from P11 until either P17 or P24 with free neuroprotective CN03 or with CN03 encapsulated in pyruvate-liposomes (Lp-Pyr/CN03). Representative images of retinal explant culture sections at P17 and P24. DAPI used as nuclear stain. ONL=outer nuclear layer, INL=inner nuclear layer.
FIG. 4B—As for 4A, shown is the number of remaining photoreceptor rows in the tissue sections. NT and CN03 substantially overlap. Results represent mean±SD. At P17: n=4-6. At P24: n=4-5. **=p≤0.01 between the Lp-Pyr/CN03 and CN03 or NT group. Statistical analysis: Two-way ANOVA with Tukey's multiple comparison test. Scale bar 50 μm.
as §1, with “CN04. A treatment was done by applying a 20 μL solution containing 160 μM drug (either loaded in liposomes or in a free solution) to the top of the cultures.” for “CN04.”

Structure (SMILES): Cc1n[nH]c(C)c1Cc1sc2c(c1C(=O)N1C[C@H](O)CO1)c(=O)n(C)c(=O)n2CC(C)C [AR-C155858]
- Ki (MCT2): < 10 nM

Structure (SMILES): O=c1c2nc(Sc3ccc(Cl)cc3)n([C@@H]3O[C@@H]4CO[P@@](=O)(S)O[C@@H]4C3O)c2nc2[nH]c(-c3ccccc3)cn12 (stereo partly drawn) [CN04, Rp-8-pCPT-PET-cGMPS]
- Complete release from liposomes (time) [1]: ≤ 48 h
- Dying photoreceptors (TUNEL+ cells in ONL) [2]: no significant reduction in dying photoreceptors

Structure (SMILES): Cc1[nH]nc(C(F)(F)F)c1Cc1sc2c(c1C(=O)N1C[C@](C)(O)CO1)c(=O)n(C)c(=O)n2C(C)C [AZD3965]
- Ki (MCT1): 1.6 nM

Structure (SMILES): O=c1c2nc(Br)n([C@@H]3O[C@@H]4CO[P@@](=O)(S)O[C@@H]4C3O)c2nc2[nH]c(-c3ccccc3)cn12 (stereo partly drawn) [CN03, Rp-8-Br-PET-cGMPS]
- Dying photoreceptors (TUNEL+ cells in ONL) [2]: no significant reduction in dying photoreceptors
- Number of remaining photoreceptor rows [3]: did not achieve a rescue effect
